{
  "source": "patent US7109200B2",
  "about": "“Carbamate derivatives, process for producing the same and use thereof” (Takeda Pharmaceutical Company Limited, priority 2000, dated 2006)",
  "key": {"[1]": {"test_system": "Human normal plasma", "assay": "In vitro clotting time measurement: prothrombin time (PT)", "type": "biochemical", "details": "PT 2-fold extending concentration (CT2), rabbit brain-derived tissue thromboplastin", "protocol": "(2) In vitro Clotting Time Measurement\n(2-1) Prothrombin Time (PT) Measurement:\nA PT-test WAKO (WAKO PURE CHEMICAL) was employed together with an automatic coagulometer (STA compact DIAGNOSTICA STAGO). 97 μl of Human normal plasma (fresh human plasma, FFP, SEKISUI KAGAKU KOGYO) was combined with 3 μl of a test substance and pre-incubated at 37° C. for 4 minutes. 50 μl of the plasma described above was combined with 100 μl of rabbit brain-derived tissue thromboplastin solution and the time for the clotting was measured. The test substance was used after dissolving in dimethyl sulfoxide (DMSO). A concentration required for 2-fold prolongation of the clotting time was calculated based on the clotting time observed when DMSO was added instead of the test substance."}, "[2]": {"molecular_target": "human FXa (Homo sapiens, UniProt P00742)", "sequence (P00742 235-488 limits assumed)": "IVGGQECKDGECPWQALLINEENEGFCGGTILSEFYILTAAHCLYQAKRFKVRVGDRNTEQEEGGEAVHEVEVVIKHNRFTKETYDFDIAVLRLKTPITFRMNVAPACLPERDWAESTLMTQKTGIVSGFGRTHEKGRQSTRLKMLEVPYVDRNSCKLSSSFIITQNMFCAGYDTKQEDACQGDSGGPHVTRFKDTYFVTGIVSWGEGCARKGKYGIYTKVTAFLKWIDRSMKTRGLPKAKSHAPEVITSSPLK", "sequence (P00742 41-179 partner limits assumed)": "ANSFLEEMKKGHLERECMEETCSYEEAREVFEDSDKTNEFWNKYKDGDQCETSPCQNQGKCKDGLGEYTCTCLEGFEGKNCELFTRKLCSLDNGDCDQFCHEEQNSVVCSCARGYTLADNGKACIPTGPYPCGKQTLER", "assay": "Human activated coagulation factor X (FXa) inhibiting activity", "type": "biochemical", "details": "substrate S-2765, 37° C., absorbance at 405 nm", "protocol": "(1) Human Activated Coagulation Factor X (FXa) Inhibiting Activity\nMethod: A cuvette was charged with 225 μl of 0.05 M tris buffer (pH 8.3) containing 0.145 M sodium chloride and 2 mM calcium chloride, 5 μl of a sample (test compound dissolved in dimethyl sulfoxide) and 10 μl of human FXa (0.3 unit/ml), which were reacted at 37° C. for 10 minutes and then combined with 10 μl of a substrate (3 mM, S-2765) and further reacted at 37° C. for 10 minutes. Then the reaction was terminated by adding 25 μl of 50% aqueous acetic acid, and the change in the absorbance at 405 nm was determined using a spectrophotometer to calculate the concentration at which the FXa effect was inhibited by 50% (IC50)."}},
  "data": [
    {"smiles": "CCOC(=O)NC1(CN2CCN(S(=O)(=O)c3ccc4cc(Cl)ccc4c3)CC2=O)CCN(c2ccncc2)CC1", "note": "[Example 1, 4-(6-Chloronaphthalene-2-sulfonyl)-1-[4-ethoxycarbonylamino-1-(4-pyridyl)-4-piperidylmethyl]-2-piperazinone]", "values": [
      {"measurement": "PT CT2", "setting": "[1]", "value": 0.27, "unit": "µM"},
      {"measurement": "IC50", "setting": "[2]", "value": 4.6, "unit": "nM"}
    ]}
  ]
}
